Columns and labels:
SV-HUC-1 cells = assay: cell cycle analysis (PI, flow cytometry); type: cell-based; conditions: 48 hr, RPMI 1640 with 0.5% FBS
Description: The cells grown in 6-well plate were stimulated with 5 μM and 10 μM LY255283, 1 μM U75302 for 48 h in RPMI 1640 containing 0.5% FBS. The cells which were collected by brief trypsinization were fixed overnight with 70% ethanol at 4° C. The cells were resuspended in PBS containing RNase A (100 μg/ml) and incubated for 30 min at 37° C. The cells were stained with propidium iodide (50 μg/ml) (Sigma). Acquisition and analysis was performed by FACS using Cell Quest Alias software (BD Bioscience). […] Cells were treated with BLT antagonist for 48 hours and the cell cycle population was measured by flow cytometry. In brief, cells were plated in 6 well plate and then treated with LY255283, U75302 for 48 hr. At the end of the treatment, the cells were harvested and then centrifuged. The cells fixed in ice-cold 70% ethanol for 24 hr and centrifuged. The pellet were resuspended in 0.5 ml phosphate-buffered saline (PBS) and incubated with Pl 1 mg/ml treatment for 15 min.

Rat2-BLT2 cells = assay: experimental metastasis assay, lung metastasis driven by BLT2; type: in vivo, nude mice; conditions: intraperitoneal 3 and 5 days after cell injection, 21 days
Description: All experimental animals used in this study were treated according to guidelines approved by the Institutional Animal Care and Use Committee of Korea University. Female nude mice (Charles River, Wilmington, Mass.), four-weeks-old at the time of injection, were used in the experimental metastasis assay. Rat-2, Rat2-HO6, and Rat2-BLT2 cells (5×10^5 cells) were prepared for injection from cultures in logarithmic growth at the time of harvest. The cells were briefly treated with 0.025% trypsin and 0.1% EDTA in Hanks' balanced salt solution and quickly removed from trypsin by centrifugation, resuspended in saline containing LTB4, and injected within 1 hr in 0.1 ml into the lateral tail vein with a 26-gauge needle. For inhibitor experiments, U75302 and LY255283 (0.25 mg/kg for BLT1 antagonist and 2.5 mg/kg for BLT2 antagonist) was injected intraperitoneal ˜3 and 5 days after injection of cells that were pretreated with inhibitors. […]
In vivo lung metastasis driven by H-Ras^V12 (panel B of FIG. 2a) or BLT2 (panel C of FIG. 2a) was reduced by BLT2 inhibition (LY255283) based on the macroscopic and histologic appearance of lung. […] Mice were euthanized 21 days after cell injection, and the number of lung metastasis nodules and weight of lung was analyzed in each group. […] Metastasis survival was analyzed in Kaplan-Meyer plots.

[1] = tested on: 253J-BV bladder cancer cell; assay: mitochondrial membrane potential (JC-1, flow cytometry); type: cell-based, human; conditions: 48 hr
Description: Mitochondrial damage is important to the apoptosis affected by the caspase-9 pathway. To evaluate the effect of LY255283 on the mitochondria membrane potential (MMP), cell were pretreated with the fluorescent mitochondria specific cationic dye, JC-1, and changes in membrane potential were measured by flow cytometry. Cells grown in 6 well-plates for 24 hr washed PBS and incubated in RPMI 1640 with 0.5% FBS containing different concentrations of LY255283 and U75302 for 48 hr. After cells were treated with 5 μg/ml of JC-1 for 30 min. Then removal of JC-1, washed with PBS, harvested by trypsinization, and resuspended in PBS. Sample was measured at 530 nm (FL-1 green) and 590 nm (FL-2 red) using a flow cytometry. […] And because of the loss of mitochondrial membrane potential in a LY255283 treated cells, it was speculated that caspase may play an essential role in the process of apoptosis.

eosinophil membranes = conditions: read-out: IC50, inhibits the binding of radiolabeled LTB4 to eosinophil membranes; cited from earlier work
LNCaP cells = type: cell-based, human; conditions: 5 μM, 48 hr
Description: DNA fragmentation was shown by the harvesting of total cellular DNA. Cells were grown in 10 cm plates to 70% confluence with 10% FBS-supplemented medium. Then the media was replaced with serum free RPMI 1640 and the cells were treated with 5 μM LY255283 for 48 hr. Cellular DNA from cells was extracted incubating with lysis buffer (1 mM EDTA, 10 mM Tris, 120 mM NaCl, 1% SDS and 100 μg/ml proteinase K, pH 8.0) for 12 hr at 50° C. The lysate was centrifuged for 10 min at 13,000×g to separate the fragment DNA. The supernatant was then extracted twice with phenol/chloroform/isoamyl alcohol and precipitated with absolute ethanol. […] After electrophoresis, gels were stained with ethidium bromide, and the DNA was visualized by UV light.

PWR-1E cells = assay: cell cycle analysis / apoptosis measurement; type: cell-based; conditions: 5 μM, 48 hr
Description: After LNCaP cells and PWR-1E cells were treated with 5 μM LY255283 for 48 hr, the cells were fixed with 70% ethanol and stained with Pl. Cell cycle was analyzed using flow cytometry. The cells grown in 6-well cluster dishes were stimulated with 5 μM LY255283 for 48 h in serum free RPMI 1640. The cells which were collected by brief trypsinization were fixed for 12 hr with 70% ethanol at 4° C. The cells were resuspended in PBS containing RNase A (100 μg/ml) and incubated for 30 min at 37° C. The cells were stained with propidium iodide (50 μg/ml) (Sigma). Acquisition and analysis was performed by FACS using Cell Quest Alias software (BD Bioscience).

Row | Compound | cell cycle (SV-HUC-1 cells) | lung metastasis driven by BLT2 (Rat2-BLT2 cells) | mitochondria potential ([1]; 10 μM) | increase of green fluorescence (FL-1) compare with control cells ([1]; JC-1, 10 μM) | IC50 (eosinophil membranes) [µM] | DNA fragmentation (LNCaP cells) | apoptosis in prostate normal cells (PWR-1E cells)
1 | CCCCC/C=C\C[C@@H](O)/C=C/c1cccc(C[C@@H](O)CCCCO)n1 [U75302] | not effect | caused no suppression on metastasis | – | – | – | – | –
2 | CCc1cc(C(C)=O)c(O)cc1OCCCCCC(C)(C)c1nnn[nH]1 [LY255283, 1-[5-ethyl-2-hydroxy-4-[[6-methyl-6-(1H-tetrazol-5-yl)heptyl]oxy]phenyl]-ethanone] | – | – | drop in mitochondria potential | about 2.5 fold | 0.26 | A smear of different sizes of DNA fragments was observed | but not prostate normal cells

— patent publication US8518889B2, “Method of treating cancer with antibodies against long-form leukotriene B4 receptor BLT2” (Korea University Research & Business Foundation, priority 2007, dated 2013)
